Experimental data as given in patent US20020147353A1, “Novel flavonoids” (Vereniging christelijk wetenschappelijk anderwijs, priority 1999, published 2002).

Legend:
[1] = test system: iron/ascorbate induced lipid peroxidation; test: Lipid peroxidation (LPO) model, heat-treated hepatic microsomes, TBA reactive substances; format: biochemical; conditions: rat hepatic microsomes, reaction started with 10 uM FeSO4; mean ± s.e.m., n = 3-5
Method: Experiment 1: Lipid Peroxidation Model
Preparation of hepatic microsomes.
Male Wistar rats (200-220 g) obtained from Harlan Nederland B.V. (Horst, The Netherlands) were sacrificed by decapitation. Livers were removed and homogenized in ice-cold phosphate buffer (50 mM+0.1 mM EDTA, pH=7.4, 1:2 w/v). The homogenate was centrifuged at 10 000× g (20 min at 4° C.). Subsequently, the supernatant was centrifuged at 100 000× g for 60 min (4° C.). The pellet was resuspended in phosphate buffer and centrifuged again at 100 000× g (60 min, 4° C.). Finally the microsomal pellet was resuspended in phosphate buffer (2 g liver/ml) and 1 mL aliquots were stored at −80° C.
Microsomes were thawed and resuspended in ice-cold Tris-HCl buffer (50 mM, pH=7.4 at 37° C.) and washed by centrifugation. The pellet was resuspended in 2 mL 50 mM Tris-HCl buffer and heated to 100° C. for at least 2 min to remove all enzymatic factors just before resuspending and diluting it in ice-cold Tris buffer to 1.5 mg/mL.
Stock solutions of the flavonoids were freshly prepared in nitrogen-purged DMSO and nanopure water (1:1) just before use. The reaction was started by adding 10 uM freshly prepared FeSO4 in nitrogen-purged nanopure water. LPO was assayed by measuring thiobarbituric acid (TBA) reactive substances. At t=0, 5, 10, 15, 30, 45 and 60 min an 0.3 mL aliquot of the incubation was mixed with 2 mL of an ice-cold TBA-trichloroacetic acid-HCl-butylhydroxytoluene (BHT) solution to stop the reaction. After heating and centrifugation the absorbance at 535 vs 600 nm was determined. The TBA-trichloroacetic acid-HCl-butylhydroxytoluene solution was prepared by dissolving 41.6 mg TBA/10 ml trichloroacetic acid (16.8% w/v in 0.125 N HCl). To 10 ml TBA-trichloroacetic acid-HCl 1 ml BHT (1.5 mg/ml ethanol) was added.
The IC50 was determined by measuring the % LPO inhibition at several concentrations and interpolating the 50% inhibition point.

[2] = TEAC model (Trolox equivalent antioxidant capacity); conditions: concentration of Trolox equivalent to 1 mM test compound; mean ± S.D., n = 3-5
Method: A solution of 2,2′-azino-bis(3-ethylbenzthiazoline-6-sulfonic acid) (1.23 mg/mL) and azobisamidinepropane (3.96 mg/mL) in 50 mM phosphate buffer (pH=7.4) was heated at 70° C. for 20 min. The amount of ABTS radicals was measured by determination of the absorbance at 734 nm.
Stock solutions of the flavonoids were freshly prepared in nitrogen-purged DMSO and nanopure water (1:1) just before use. A calibration curve of Trolox ((+/−)-6-hydroxy-2,5,7,8-tetramethyl-chroman-2-carboxylic acid) was made in a concentration range from 0 to 20 μM. A mixture of 50 μL test compound and 950 μL ABTS^−+ solution was incubated at 37° C. for 5 min. Subsequently the absorbance at 734 nm was determined on a UV/VIS Spectrophotometer.
The antioxidant-induced decrease in absorbance is directly related to the antioxidant capacity of the compound (solution) being tested.
The Trolox equivalent antioxidant capacity (TEAC) is defined as the concentration (mM) of Trolox having an antioxidant capacity equivalent to 1 mM of the test compound.

OVCAR-3 cells [3] = test: Antitumor activity of flavonoids, SRB growth inhibition assay; format: cell-based; conditions: 72 h
Method: Experiment 6: Antitumor Activity of Flavonoids
Next to the use of flavonoids as medicaments in free radical mediated diseases, the presence of anti-tumor activity has been reported. Quercetin is the best known example (Molnar et al. Neoplasma, 28: 11-17 (1981)). Because of the possible use of these compounds in chemotherapy, it was checked whether the compounds affected cell growth.
On day 0 cultured OVCAR-3 cells were plated at a density of 5000 cells/well. After 24 h (day 1) the example compounds were added and after incubation of 72 h at 37° C. (day 4), growth inhibitory effects were evaluated with the standard SRB (sulforhodamine B) assay (Skehan et al. J. Natl. Cancer Inst., 82: 1107-1112 (1990)).

[4] = test system: isolated mouse left atrium; test: Isolated mouse left atrium model: protection against doxorubicin-induced negative inotropy; set-up: key: NP: No protection; conditions: 250 μM flavonoid with 35 μM doxorubicin, electrically paced mouse left atrium
Method: Experiment 3: Isolated Mouse Left Atrium Model
In order to determine the cardioprotective properties of the compounds in vitro, the protection against doxorubicin-induced negative inotropy was studied, using the isolated mouse left atrium model.
The example compounds were tested for their protective effect on the negative inotropic action of doxorubicin on the isolated mouse left atrium. The testing model has been described earlier (de Jong et al.Ress Comm Chem Pathol Pharmacol 68, 275-289 (1990). In short, left atria were isolated from male Balb/c mice (18-22 g) and stimulated with square wave pulses of 3 ms duration at a frequency of 4 Hz. Incubation with […] doxorubicin causes a decrease in inotropy of 50% (after 1 h). Atria were incubated with 35 μM doxorubicin and 250 μM flavonoid. Inotropy was measured and expressed as % basal contractile force relative to t=0.

A2780 cells = test: Interference with antitumor activity of doxorubicin, MTT assay; format: cell-based; conditions: Homo sapiens, A2780, 96 h, read-out: Dox IC50
Method: (§1) Experiment 5: Interference with the Antitumor Activity of Doxorubicin Because of the possible use of these compounds as adjuvants in the chemotherapy, it was checked whether the compounds influenced the negative effect of doxorubicin on cell growth. […] This observation further underlined the use of these compounds as adjuvant therapy in the protection of the side effects of cytostatics. On day 0 cultured OVCAR-3, MCF-7 and A2780 cells were plated at a density of 5000 cells/well for OCAR-3 and MCF-7 and 3000 cells/well for A2780 cells. […] After incubation of 96 h at 37° C. (day 5), growth inhibitory effects were evaluated using the standard MTT assay.

MCF-7 cells = test: as above; format: cell-based; conditions: Homo sapiens, MCF7, MCF-7, 96 h, read-out: Dox IC50
Method: as §1

OVCAR-3 cells [5] = test: as above; format: cell-based; conditions: Homo sapiens, OVCAR-3, 96 h, read-out: Dox IC50
Method: as §1

| IC50 [1] | Compound | TEAC [2] | Atrium protection (250 μM) [4] | further results |
| --- | --- | --- | --- | --- |
| 11 ± 1.3 µM | O=c1cc(-c2ccc(O)c(O)c2)oc2cc(O)ccc12 [Compound 8a, 3′,4′,7-trihydroxyflavone] | 4.3 ± 0.2 mM | – | – |
| 2.5 ± 0.8 µM | COc1ccc2c(=O)cc(-c3ccc(O)c(O)c3)oc2c1 [Compound 8b, 3′,4′-dihydroxy-7-methoxyflavone] | 3.3 ± 0.2 mM | – | melting point: > 240 °C |
| 37.3 ± 2.4 µM | C[N+](C)(C)CCCOc1ccc2c(=O)cc(-c3ccc(O)c(O)c3)oc2c1 [Compound 8d, 3′4′-dihydroxy-7-(3-trimethylaminopropoxy)flavone] | 1.9 ± 0.3 mM | – | – |
| 1.8 ± 1 µM | O=c1c(O)c(-c2ccc(O)c(O)c2)oc2ccccc12 [Compound 9a, 3′3,3′,4′-trihydroxyflavone] | 4.5 ± 0.5 mM | NP^1 | IC50 (OVCAR-3 cells [3]): 21 ± 2.4 µM |
| 1.3 ± 0.7 µM | COc1c(-c2ccc(O)c(O)c2)oc2ccccc2c1=O [Compound 9b, 3′4′-dihydroxy-3-methoxyflavone] | 4.4 ± 0.3 mM | NP | IC50 (OVCAR-3 cells [3]): 2.2 ± 0.4 µM |
| 0.6 ± 0.1 µM | O=c1c(OCCO)c(-c2ccc(O)c(O)c2)oc2ccccc12 [Compound 9c, 3′,4′-dihydroxy-3-hydroxyethoxyflavone] | 4.4 ± 0.4 mM | NP | IC50 (OVCAR-3 cells [3]; Homo sapiens): 44.2 ± 20.1 µM |
| 6.5 ± 1 µM | O=C(O)COc1c(-c2ccc(O)c(O)c2)oc2ccccc2c1=O [Compound 9d, 3′4′-dihydroxy-3-(2-ethoxycarboxylic acid)flavone] | 7.6 ± 0.6 mM | NP | – |
| 1.2 ± 0.3 µM | C[N+](C)(C)CCCOc1c(-c2ccc(O)c(O)c2)oc2ccccc2c1=O [Compound 9f, 3′4′-dihydroxy-3-(3-trimethylaminopropoxy)flavone] | 4.2 ± 0.2 mM | NP | – |
| 1.4 ± 0.3 µM | C[N+](C)(C)CCCCCCOc1c(-c2ccc(O)c(O)c2)oc2ccccc2c1=O [Compound 9g, 3′4′-dihydroxy-3-(6-trimethylaminohexyloxy)flavone] | 4.3 ± 0.6 mM | NP | – |
| 1 ± 0.3 µM | C[N+](C)(C)CCCCCCCCOc1c(-c2ccc(O)c(O)c2)oc2ccccc2c1=O [Compound 9h, 3′4′-dihydroxy-3-(8-trimethylaminooctyloxy)flavone] | 3.3 ± 0.6 mM | NP | – |
| 15.7 ± 4.8 µM | C[C@@H]1O[C@@H](OC[C@H]2O[C@@H](Oc3c(-c4ccc(O)c(O)c4)oc4ccccc4c3=O)[C@H](O)[C@@H](O)[C@@H]2O)[C@H](O)[C@H](O)[C@H]1O [Compound 9j, 3′,4′-dihydroxy-3-rutinoseflavone] | 4.3 ± 0.3 mM | NP | – |
| 3.8 ± 0.1 µM | C[N+](C)(C)CCCc1c(-c2ccc(O)c(O)c2)oc2cc(O)ccc2c1=O.[Cl-] [Compound 10d, 3-(7,3′,4′-trihydroxyflavon-3-yl)-propyltrimethylammoniumchloride] | 5.1 ± 0.3 mM | 33% | – |
| – | COc1cccc2c1C(=O)c1c(O)c3c(c(O)c1C2=O)C[C@@](O)(C(=O)CO)C[C@@H]3O[C@H]1C[C@H](N)[C@H](O)[C@H](C)O1 [Dox, doxorubicin, reference compound] | – | – | IC50 (A2780 cells): 0.0038 µM; IC50 (MCF-7 cells): 0.004 µM; IC50 (OVCAR-3 cells [5]): 0.0065 µM |
| 6 µM | O=c1c(O)c(-c2ccccc2)oc2cc(O)cc(O)c12 [Galangin, reference compound] | – | – | – |
| 6 µM | O=c1c(O)c(-c2ccc(O)cc2)oc2cc(O)cc(O)c12 [Kaempferol, reference compound] | – | – | – |
| 17 µM | O=c1cc(-c2ccc(O)c(O)c2)oc2cc(O)cc(O)c12 [Lutcolin, reference compound] | – | – | – |
| 10 µM | O=c1c(O)c(-c2cc(O)c(O)c(O)c2)oc2cc(O)cc(O)c12 [Myricetin, reference compound] | – | – | – |
| 9 µM | O=c1c(O)c(-c2ccc(O)c(O)c2)oc2cc(O)cc(O)c12 [Quercetin, reference compound] | – | – | IC50 (OVCAR-3 cells [3]; Homo sapiens): 126 ± 50.5 µM |
| 10 µM | C[C@@H]1O[C@@H](OC[C@H]2O[C@@H](Oc3c(-c4ccc(O)c(O)c4)oc4cc(O)cc(O)c4c3=O)[C@H](O)[C@@H](O)[C@@H]2O)[C@H](O)[C@H](O)[C@H]1O [Rutin, reference compound] | – | – | – |
| 12.7 ± 3.7 µM | C[C@@H]1O[C@@H](OC[C@H]2O[C@@H](Oc3c(-c4ccc(O)c(O)c4)oc4cc(OCCO)cc(O)c4c3=O)[C@H](O)[C@@H](O)[C@@H]2O)[C@H](O)[C@H](O)[C@H]1O [monoHER, 7-monohydroxyethylrutoside, reference compound] | 3.0 ± 0.2 mM | 52% | – |
| 16 µM | Fisetin [reference compound] | – | – | – |

| Compound | IC50 [1] | TEAC [2] | Atrium protection (250 μM) [4] | further results |
| --- | --- | --- | --- | --- |
| O=c1cc(-c2ccc(O)c(O)c2)oc2cc(OCCO)ccc12 [Compound 8c, 3′,4′-dihydroxy-7-hydroxyethoxyflavone] | 16.4 ± 1.7 µM | 4.3 ± 0.7 mM | – | – |
| CN(C)CCCOc1ccc2c(=O)cc(-c3ccc(O)c(O)c3)oc2c1 [Compound 8e, 3′,4′-dihydroxy-7-(3-dimethylaminopropoxy)flavone] | 8.1 ± 1.1 µM | 2.9 ± 0.4 mM | – | – |
| CN(C)CCCOc1c(-c2ccc(O)c(O)c2)oc2ccccc2c1=O [Compound 9e, 3′,4′-dihydroxy-3-(3-dimethylaminopropoxy)flavone] | 1 ± 0.1 µM | 3.4 ± 0.4 mM | NP | – |
| COc1c(-c2ccc(O)c(O)c2)oc2cc(O)ccc2c1=O [Compound 10b, 3-methoxy-7,3′,4′-trihydroxyflavone] | 1.6 ± 0.7 µM | 5.9 ± 0.7 mM | NP | IC50 (OVCAR-3 cells [3]; Homo sapiens): 15.8 ± 1.3 µM |
| O=c1c(OCCO)c(-c2ccc(O)c(O)c2)oc2cc(O)ccc12 [Compound 10c, 3-hydroxyethoxy-7,3′,4′-trihydroxyflavone] | 21.7 ± 6.1 µM | 3.4 ± 0.2 mM | 13% | – |
